What all share (format): in vivo
Assay [1] relates to Amaranthus retroflexus (AMARE). The assay can be described thus: Post-emergence efficacy, Method B. The settings on record: Method B, 100=total damage to plant, 0=no damage, read-out: Control of weed species after post-emergence application, AMARE. Here is the method:
(§1) An “instant formulation”, known as the IF50, containing 50 g/L of the “technical” (i.e. unformulated) active ingredient was prepared by dissolving the active ingredient in a mixture of organic solvents and emulsifier, details of which are provided in the table. This IF50 was then mixed with a small, variable amount of acetone to aid dissolution, before addition of an aqueous solution of 1% v/v ammonium sulphate+1% v/v Empicol ESC70 (Sodium lauryl ether sulphate) adjuvant, as the aqueous diluent, to form an aqueous spray solution which contains a predetermined concentration of the active ingredient (which varies depending on the application rate of the active ingredient to the plants).
(§2) This aqueous spray solution was then sprayed onto the plants, after about 12 days' cultivation. The plants were grown from seeds sown in standard soil, placed in a glasshouse under controlled conditions (at 24/18° C. or 20/16° C., day/night; 16 hours light; 65% humidity). After spray application the plants were then grown on in a glasshouse under the same conditions and watered twice daily. […] the test was evaluated (100=total damage to plant; 0=no damage to plant).
(§3) Ipomoea hederacea (IPOHE), Euphorbia heterophylla (EPHHL), Chenopodium album (CHEAL), Amaranthus retroflexus (AMARE), Lolium perenne (LOLPE), Digitaria sanguinalis (DIGSA), Eleusine indica (ELEIN), Echinochloa crus-galli (ECHCG), Setaria faberi (SETFA)

Assay [2] concerns Setaria faberi (SETFA). The assay can be described thus: Post-emergence efficacy, Method B. The settings on record: Method B, 100=total damage to plant, 0=no damage, read-out: Control of weed species after post-emergence application, SETFA. Here is the method:
as §1, §2, §3

Assay [3] concerns Euphorbia heterophylla (EPHHL). Briefly: Post-emergence efficacy, Method B. The settings on record: Method B, 100=total damage to plant, 0=no damage, read-out: Control of weed species after post-emergence application, EPHHL. On the procedure:
as §1, §2, §3

In assay [4] the test system is Chenopodium album (CHEAL). The assay can be described thus: Post-emergence efficacy, Method B. The settings on record: Method B, 100=total damage to plant, 0=no damage, read-out: Control of weed species after post-emergence application, CHEAL. On the procedure:
as §1, §2, §3

The test system of assay [5] is Eleusine indica (ELEIN). The assay can be described thus: Post-emergence efficacy, Method B. The settings on record: Method B, 100=total damage to plant, 0=no damage, read-out: Control of weed species after post-emergence application, ELEIN. Here is the method:
as §1, §2, §3

Assay [6] deals with Ipomoea hederacea (IPOHE). The assay can be described thus: Post-emergence efficacy, Method B. The settings on record: Method B, 100=total damage to plant, 0=no damage, read-out: Control of weed species after post-emergence application, IPOHE. Here is the method:
as §1, §2, §3

For assay [7], the system named is Echinochloa crus-galli (ECHCG). Briefly: Post-emergence efficacy, Method B. The settings on record: Method B, 100=total damage to plant, 0=no damage, read-out: Control of weed species after post-emergence application, ECHCG. On the procedure: as §1, §2, §3
Assay [8] has as its system Digitaria sanguinalis (DIGSA). The assay can be described thus: Post-emergence efficacy, Method B. The settings on record: Method B, 100=total damage to plant, 0=no damage, read-out: Control of weed species after post-emergence application, DIGSA. On the procedure:
as §1, §2, §3

The test system of assay [9] is Lolium perenne (LOLPE). Briefly: Post-emergence efficacy, Method B. The settings on record: Method B, 100=total damage to plant, 0=no damage, read-out: Control of weed species after post-emergence application, LOLPE. Here is the method:
as §1, §2, §3

Assay [10] has as its system Setaria faberi (SETFA). Briefly: Post-emergence efficacy, Method A. The settings on record: Setaria faberi, post-emergence, 312 h, evaluated after 13 days. The essentials: (§4)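 Plants grown 14 days in glasshouse (24/16 °C, 14 h light, 65% humidity) were sprayed with compound formulated in IF50. The spray was diluted in 0.25% or 1% Empicol ESC70 plus 1% ammonium sulphate. Damage was scored 13 days later on a 0-100 scale, where 100 is total damage.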

For assay [11], the system named is Euphorbia heterophylla (EPHHL). Briefly: Post-emergence efficacy, Method A. The settings on record: Euphorbia heterophylla, post-emergence, 312 h, evaluated after 13 days. The method, boiled down:
as §4

Assay [12] has as its system Chenopodium album (CHEAL). The assay can be described thus: Post-emergence efficacy, Method A. The settings on record: Chenopodium album, post-emergence, 312 h, evaluated after 13 days. The method, boiled down:
as §4

Assay [13] deals with Eleusine indica (ELEIN). The assay can be described thus: Post-emergence efficacy, Method A. The settings on record: Eleusine indica, post-emergence, 312 h, evaluated after 13 days. The essentials:
as §4

The test system of assay [14] is Ipomoea hederacea (IPOHE). The assay can be described thus: Post-emergence efficacy, Method A. The settings on record: Ipomoea hederacea, post-emergence, 312 h, evaluated after 13 days. The essentials:
as §4

Assay [15] relates to Echinochloa crus-galli (ECHCG). Briefly: Post-emergence efficacy, Method A. The settings on record: Echinochloa crus-galli, post-emergence, 312 h, evaluated after 13 days. The method, boiled down:
as §4

The test system of assay [16] is Amaranthus palmeri (AMAPA). The assay can be described thus: Post-emergence efficacy, Method A. The settings on record: Amaranthus palmeri, post-emergence, 312 h, evaluated after 13 days. The essentials:
as §4

For assay [17], the system named is Digitaria sanguinalis (DIGSA). Briefly: Post-emergence efficacy, Method A. The settings on record: Digitaria sanguinalis, post-emergence, 312 h, evaluated after 13 days. The method, boiled down: as §4
The test system of assay [18] is Lolium perenne (LOLPE). Briefly: Post-emergence efficacy, Method A. The settings on record: Lolium perenne, post-emergence, 312 h, evaluated after 13 days. The essentials:
as §4

For two compounds, pest or weed control results are on record in US20220125051A1, “PRE-HARVEST DESICCATION METHOD” (SYNGENTA CROP PROTECTION AG, priority 2019, published 2022).

SMILES strings stand for the structures. Like-named read-outs stand apart in the source and are kept apart here.

In the case of `O=S(=O)([O-])CC[n+]1ccc(-c2ccncn2)cn1` [Compound A4], the pest or weed control at 500 g/ha in [1] (500 g/Ha) turned out to be 100%; with Setaria faberi (SETFA) [2] (500 g/Ha) it was 40%; in assay [3] (500 g/Ha), 100%; in assay [4] (500 g/Ha) it was 80%; with Eleusine indica (ELEIN) [5] (500 g/Ha), 80%; in assay [6] (500 g/Ha) it was 100%. Besides, the pest or weed control at 500 g/ha was 70% in assay [7] (500 g/Ha); 100% in assay [8] (500 g/Ha); 90% with Lolium perenne (LOLPE) [9] (500 g/Ha); 60% with Setaria faberi (SETFA) [10] (Application rate 500 g/Ha, 100=total damage to plant, 0=no damage to plant, read-out: Control of weed species after post-emergence application, SETFA); 100% in assay [11] (Application rate 500 g/Ha, 100=total damage to plant, 0=no damage to plant, read-out: Control of weed species after post-emergence application, EPHHL); 80% in [12] (Application rate 500 g/Ha, 100=total damage to plant, 0=no damage to plant, read-out: Control of weed species after post-emergence application, CHEAL). Also, the pest or weed control at 500 g/ha came to 100% in the assay with Eleusine indica (ELEIN) [13] (Application rate 500 g/Ha, 100=total damage to plant, 0=no damage to plant, read-out: Control of weed species after post-emergence application, ELEIN); 90% in assay [14] (Application rate 500 g/Ha, 100=total damage to plant, 0=no damage to plant, read-out: Control of weed species after post-emergence application, IPOHE); 60% in assay [15] (Application rate 500 g/Ha, 100=total damage to plant, 0=no damage to plant, read-out: Control of weed species after post-emergence application, ECHCG); 100% in [16] (Application rate 500 g/Ha, 100=total damage to plant, 0=no damage to plant, read-out: Control of weed species after post-emergence application, AMAPA); 80% in assay [17] (Application rate 500 g/Ha, 100=total damage to plant, 0=no damage to plant, read-out: Control of weed species after post-emergence application, DIGSA); 100% with Lolium perenne (LOLPE) [18] (Application rate 500 g/Ha, 100=total damage to plant, 0=no damage to plant, read-out: Control of weed species after post-emergence application, LOLPE).

Consider `O=C([O-])CCC[n+]1ccc(-c2ncccn2)cn1` [Compound A220], for which the pest or weed control at 1000 g/ha in [1] (1000 g/Ha) was 100%; with Setaria faberi (SETFA) [2] (1000 g/Ha), 30%; in assay [3] (1000 g/Ha) it was 100%; in assay [4] (1000 g/Ha) it was 90%; with Eleusine indica (ELEIN) [5] (1000 g/Ha), 100%; in [6] (1000 g/Ha), 30%. The figures for the pest or weed control at 1000 g/ha (in assay [7] (1000 g/Ha); in assay [8] (1000 g/Ha); in the assay with Lolium perenne (LOLPE) [9] (1000 g/Ha)) were 90%, 100% and 90%, respectively. Further, the pest or weed control at 500 g/ha in the assay with Setaria faberi (SETFA) [10] (Application Rate 500 g/Ha, Method A, read-out: Control of weed species after post-emergence application, SETFA (100=total damage to plant; 0=no damage to plant)) amounted to 60%; in [11] (Application Rate 500 g/Ha, Method A, read-out: Control of weed species after post-emergence application, EPHHL (100=total damage to plant; 0=no damage to plant)), 90%; in [12] (Application Rate 500 g/Ha, Method A, read-out: Control of weed species after post-emergence application, CHEAL (100=total damage to plant; 0=no damage to plant)), 100%; with Eleusine indica (ELEIN) [13] (Application Rate 500 g/Ha, Method A, read-out: Control of weed species after post-emergence application, ELEIN (100=total damage to plant; 0=no damage to plant)), 20%; in assay [14] (Application Rate 500 g/Ha, Method A, read-out: Control of weed species after post-emergence application, IPOHE (100=total damage to plant; 0=no damage to plant)) it was 80%; in assay [15] (Application Rate 500 g/Ha, Method A, read-out: Control of weed species after post-emergence application, ECHCG (100=total damage to plant; 0=no damage to plant)), 40%. The pest or weed control at 500 g/ha turned out to be 100% in assay [16] (Application Rate 500 g/Ha, Method A, read-out: Control of weed species after post-emergence application, AMAPA (100=total damage to plant; 0=no damage to plant)); 90% in assay [17] (Application Rate 500 g/Ha, Method A, read-out: Control of weed species after post-emergence application, DIGSA (100=total damage to plant; 0=no damage to plant)); 60% with Lolium perenne (LOLPE) [18] (Application Rate 500 g/Ha, Method A, read-out: Control of weed species after post-emergence application, LOLPE (100=total damage to plant; 0=no damage to plant)).
